Patent US7977320B2, “Method of increasing efficacy of tumor cell killing using combinations of anti-neoplastic agents” (The Regents of the University of California, priority 2004, dated 2011)

Legend:
Assay type in all cases: cell-based
primary AML cells [1] = experiment: proliferative response of primary AML samples to GO; settings: for responsive samples: FIG. 3A
Method: More specifically, for Panel A, colony formation assays were performed as follows: HL-60 cells were treated and cultured in 0.3% agarose in triplicate for each condition in the presence of 0.01 ug/ml of antibodies. After 14 days of culture, the number of colonies was enumerated in each dish. The basal level of colony formation (>400 per dish) was considered as 100% and the percentage of stimulation was calculated for each condition. Error bars in the figure indicate the SEM. Each graph is representative of at least 3 independent experiments. For Panel B, primary leukemia cells were cultured for 48 hours in the presence of 0.01 ug/ml of anti-CD33 mAb or control mouse IgG. Each bar in the figure summarizes (median) the proliferative response of that group. The basal level of untreated cell proliferation (CPM>5500 CPM) was considered as 0%. Inhibition was calculated as the percent change for that condition. Error bars indicate the SEM.
With the knowledge of the effect of a naked anti-CD33 antibody on Syk activation and cell proliferation or death, we investigated the effect of an immunotoxin (GO; Mylotarg® (Wyeth)) on these characteristics. GO was selected based on its approval status by the FDA. Proliferation assays were performed as described above. Various concentration of GO were added at the initiation of 48 hour culture. The basal levels of cell proliferation (untreated cells) were >10000 cpm and were considered as 100%. The percentage of change was calculated for each condition for each sample. Error bars indicate the SEM.

HL-60 cells = experiment: proliferation assay of HL-60 cells transfected with Syk si-RNA or control RNA; settings: Syk si-RNA-transfected HL-60 cells versus control RNA treated or untreated cells, FIG. 4B
Method: To test whether there is a correlation between response of AML cells to CD33 ligation and/or GO treatment and the level of their Syk expression, “blocking” experiments were performed. In order to block Syk expression, we used Syk-si-RNA transfection. More specifically, for the results presented in FIGS. 4A and 4B, HL-60 cells were transfected with Syk si-RNA or control RNA and grown in cell culture under normal conditions for these cells. 72 hours post-transfection, cells were cultured in the presence of optimal ([…]) concentration of mAb, as disclosed above (FIG. 4A) or the indicated concentrations of Mylotarg® (Wyeth) (FIG. 4B). Proliferation assays were performed as described above. The basal level of proliferation was >10000 CPM (considered as 100%). Each point represents the percent change for that condition. Error bars indicate the SEM. Bars compared and marked with asterisk have a statistically significant difference. For FIG. 4C, HL-60 cells were transfected with Syk si-RNA or control RNA. After 72 hours of culture under typical culture conditions, cell lysates were prepared and used to generate immune precipitates with the appropriate mAb.

Syk = Syk expression in primary AML samples after 5-azacytidine treatment
Method: Based on these observations, we tested a panel of 25 primary AML samples for Syk expression using standard Western blotting and an anti-Syk or anti-ZAP-70 mouse monoclonal antibody from Santa Cruz Biochem.
(§1) To evaluate the effect of certain chemotherapeutic agents on signal transduction through Syk and/or SHP-1, experiments were performed on primary AML samples. Primary leukemia cells were treated with 5-azacytidine for 4 days under otherwise normal cell culture growth conditions. The cells were then washed twice, and a proliferation assay was performed as described above. The basal level of proliferation (untreated cells) was considered as 100% and the percent change was calculated for each condition. Error bars indicate the SEM.
Syk is not only an important protein kinase, but also a tumor suppressor. In many cancer cells, Syk is silenced by hypemethylation of the DNA encoding it. This hypermethylation can lead to absence of Syk expression and, as a result, to unresponsiveness of tumor cells to various treatments. To block possible hyper-methylation and restore Syk expression in Syk-negative primary AML samples, we used 5-azacytidine. Other hypomethylating agents could work as well. The results of the experiments are depicted in FIG. 7, Panels A-D.

SHP-1 = SHP-1 expression in primary AML samples after 5-azacytidine treatment; settings: 2 of 5 SHP-1-negative primary AML samples
primary AML cells [2] = experiment: proliferation assay of primary AML samples after 5-azacytidine treatment; settings: for inhibition of proliferation: Syk+ cells, FIG. 7A
Method: as §1

gemtuzumab ozogamicin [GO]
responsive samples (primary AML cells [1]; Syk-negative primary AML samples): 17% | responsive samples (primary AML cells [1]; Syk-positive primary AML samples): 83% | level of inhibition of proliferation (primary AML cells [1]; Syk-positive samples versus Syk-negative samples, p<0.003): higher than in Syk-negative samples | proliferative response (primary AML cells [1]; both Syk-positive and Syk-negative samples, 48 hour culture, FIG. 3B): dose-dependent inhibition | response of proliferation to treatment (HL-60 cells): significantly lower response

Nc1ncn([C@@H]2O[C@H](CO)[C@@H](O)[C@H]2O)c(=O)n1 [5-azacytidine, 5-Azacytidine]
samples with restored Syk expression (Syk; 5 of 15 Syk-negative primary AML samples): 33% | level of Syk expression (Syk; Syk-positive samples (data not shown)): un-changed | samples with restored SHP-1 (SHP-1): 40% | level of inhibition of proliferation (primary AML cells [2]; 5-aza alone, Syk-positive or SHP-positive samples versus negative samples): significantly higher | inhibition of proliferation (primary AML cells [2]; 5-azacytidine 4 days combined with GO): increased inhibition of proliferation | inhibition of proliferation (primary AML cells [2]; 5-azacytidine 4 days combined with naked anti-CD33 antibody): increased inhibition of proliferation | effect of anti-CD33 antibodies on proliferation (primary AML cells [2]; Syk- cells (non-responders) treated with the hypomethylating agent, FIG. 7B): substantially increased | level of inhibition of proliferation (primary AML cells [2]; Syk-negative or SHP-1-negative samples, 5-aza combined with Mylotarg): comparable to positive samples | level of inhibition of proliferation (primary AML cells [2]; Syk-negative or SHP-1-negative samples, 5-aza combined with anti-CD33 mAb): comparable to positive samples
